Test [1] deals with T1, Exosome RNA helicase MTR4 (Homo sapiens, UniProt P42285).
T1 sequence (P42285 whole entry): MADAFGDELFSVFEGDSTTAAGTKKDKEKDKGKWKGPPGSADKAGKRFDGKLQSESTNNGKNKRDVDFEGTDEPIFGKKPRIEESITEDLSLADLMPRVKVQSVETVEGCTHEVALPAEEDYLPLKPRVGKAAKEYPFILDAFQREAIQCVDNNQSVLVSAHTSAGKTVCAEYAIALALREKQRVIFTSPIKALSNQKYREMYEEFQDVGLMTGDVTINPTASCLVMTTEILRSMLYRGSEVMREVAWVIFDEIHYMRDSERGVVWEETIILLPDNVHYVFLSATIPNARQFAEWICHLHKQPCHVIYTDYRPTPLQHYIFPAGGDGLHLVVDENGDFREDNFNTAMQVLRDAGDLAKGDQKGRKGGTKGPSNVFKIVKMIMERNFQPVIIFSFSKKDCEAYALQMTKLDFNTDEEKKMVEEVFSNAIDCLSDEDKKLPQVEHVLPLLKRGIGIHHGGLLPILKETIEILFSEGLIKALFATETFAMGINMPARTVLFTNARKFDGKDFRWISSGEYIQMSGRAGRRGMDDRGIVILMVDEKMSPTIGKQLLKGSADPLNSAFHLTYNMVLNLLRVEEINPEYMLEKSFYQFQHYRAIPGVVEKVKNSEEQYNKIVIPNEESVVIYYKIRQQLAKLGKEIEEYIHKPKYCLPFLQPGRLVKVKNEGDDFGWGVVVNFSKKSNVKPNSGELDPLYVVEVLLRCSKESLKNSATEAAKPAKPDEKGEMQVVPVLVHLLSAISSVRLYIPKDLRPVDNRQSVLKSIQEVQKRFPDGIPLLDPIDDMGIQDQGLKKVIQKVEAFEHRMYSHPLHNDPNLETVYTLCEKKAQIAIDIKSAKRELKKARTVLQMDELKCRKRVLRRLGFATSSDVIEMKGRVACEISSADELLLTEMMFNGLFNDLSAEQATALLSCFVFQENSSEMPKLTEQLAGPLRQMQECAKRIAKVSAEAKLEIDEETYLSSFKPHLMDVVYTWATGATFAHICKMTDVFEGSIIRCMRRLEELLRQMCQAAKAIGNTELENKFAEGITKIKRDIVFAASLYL

The target of test [2] is T2, Bifunctional phosphoribosylaminoimidazole carboxylase/phosphoribosylaminoimidazole succinocarboxamide synthetase (Homo sapiens, UniProt P22234).
T2 sequence (P22234 whole entry): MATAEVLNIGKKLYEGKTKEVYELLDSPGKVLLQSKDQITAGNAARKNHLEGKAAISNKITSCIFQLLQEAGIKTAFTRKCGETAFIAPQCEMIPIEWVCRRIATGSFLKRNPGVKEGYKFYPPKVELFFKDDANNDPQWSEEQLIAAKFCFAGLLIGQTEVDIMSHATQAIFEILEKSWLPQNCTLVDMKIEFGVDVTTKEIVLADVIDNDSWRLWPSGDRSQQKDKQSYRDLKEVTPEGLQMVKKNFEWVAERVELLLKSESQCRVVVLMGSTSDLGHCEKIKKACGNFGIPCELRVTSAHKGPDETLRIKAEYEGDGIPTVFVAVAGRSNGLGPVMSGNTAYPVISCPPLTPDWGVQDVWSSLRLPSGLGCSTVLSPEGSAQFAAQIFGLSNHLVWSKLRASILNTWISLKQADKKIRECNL

The target of test [3] is MAP kinase-activated protein kinase 2 (Homo sapiens, UniProt P49137).
The target of test [4] is T3, Serine/threonine-protein kinase ULK3 (Homo sapiens, UniProt Q6PHR2).
T3 sequence (Q6PHR2 whole entry): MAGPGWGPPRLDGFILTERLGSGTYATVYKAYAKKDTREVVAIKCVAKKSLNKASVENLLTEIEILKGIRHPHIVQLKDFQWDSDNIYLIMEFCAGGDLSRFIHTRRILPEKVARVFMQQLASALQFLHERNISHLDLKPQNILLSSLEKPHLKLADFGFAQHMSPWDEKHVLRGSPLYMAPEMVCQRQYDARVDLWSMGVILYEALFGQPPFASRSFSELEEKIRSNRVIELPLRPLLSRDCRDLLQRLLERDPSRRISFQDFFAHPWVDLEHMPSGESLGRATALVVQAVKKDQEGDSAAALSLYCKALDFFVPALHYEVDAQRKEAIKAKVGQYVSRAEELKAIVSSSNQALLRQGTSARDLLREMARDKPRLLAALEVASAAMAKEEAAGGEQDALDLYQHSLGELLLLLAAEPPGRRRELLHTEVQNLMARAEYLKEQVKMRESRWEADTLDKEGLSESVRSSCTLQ

For test [5], the target named is T4, Mitogen-activated protein kinase kinase kinase kinase 3 (Homo sapiens, UniProt Q8IVH8).
T4 sequence (Q8IVH8 whole entry): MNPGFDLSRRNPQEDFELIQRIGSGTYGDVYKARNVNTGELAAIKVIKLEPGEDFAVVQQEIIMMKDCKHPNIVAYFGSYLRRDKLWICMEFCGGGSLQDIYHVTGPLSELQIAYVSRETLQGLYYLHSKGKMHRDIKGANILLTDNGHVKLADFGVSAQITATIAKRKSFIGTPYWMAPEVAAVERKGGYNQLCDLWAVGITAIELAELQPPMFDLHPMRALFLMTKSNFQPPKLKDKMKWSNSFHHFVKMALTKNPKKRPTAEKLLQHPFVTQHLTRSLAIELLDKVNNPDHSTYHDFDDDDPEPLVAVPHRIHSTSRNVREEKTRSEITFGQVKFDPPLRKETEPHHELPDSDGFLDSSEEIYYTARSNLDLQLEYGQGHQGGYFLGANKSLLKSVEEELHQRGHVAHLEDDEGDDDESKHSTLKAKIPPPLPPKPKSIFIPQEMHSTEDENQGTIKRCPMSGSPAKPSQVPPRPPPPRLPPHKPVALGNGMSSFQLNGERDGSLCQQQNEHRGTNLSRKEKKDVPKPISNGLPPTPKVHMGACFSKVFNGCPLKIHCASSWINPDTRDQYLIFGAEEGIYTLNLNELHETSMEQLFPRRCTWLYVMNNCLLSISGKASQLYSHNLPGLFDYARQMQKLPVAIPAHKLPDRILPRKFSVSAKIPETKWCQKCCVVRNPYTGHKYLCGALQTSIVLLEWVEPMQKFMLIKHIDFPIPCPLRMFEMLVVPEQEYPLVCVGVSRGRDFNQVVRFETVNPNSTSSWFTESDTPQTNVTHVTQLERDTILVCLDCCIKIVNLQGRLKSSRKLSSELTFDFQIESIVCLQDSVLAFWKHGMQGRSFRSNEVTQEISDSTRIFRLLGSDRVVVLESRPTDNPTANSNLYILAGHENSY

Test [6] concerns the target Dual specificity protein kinase CLK1 (Homo sapiens, UniProt P49759).
Test [7] addresses Wee1-like protein kinase (Homo sapiens, UniProt P30291).

Activity calls are given as the source filed them. Rule as the data show it, for most assays here: actives have a measured Kd and inactives only a lower limit. A value given as a limit tells only on which side of the number the result lay.
Also: in the data inactive means no Kd found up to 30 µM.

Sequence of MAP kinase-activated protein kinase 2 (P49137 whole entry): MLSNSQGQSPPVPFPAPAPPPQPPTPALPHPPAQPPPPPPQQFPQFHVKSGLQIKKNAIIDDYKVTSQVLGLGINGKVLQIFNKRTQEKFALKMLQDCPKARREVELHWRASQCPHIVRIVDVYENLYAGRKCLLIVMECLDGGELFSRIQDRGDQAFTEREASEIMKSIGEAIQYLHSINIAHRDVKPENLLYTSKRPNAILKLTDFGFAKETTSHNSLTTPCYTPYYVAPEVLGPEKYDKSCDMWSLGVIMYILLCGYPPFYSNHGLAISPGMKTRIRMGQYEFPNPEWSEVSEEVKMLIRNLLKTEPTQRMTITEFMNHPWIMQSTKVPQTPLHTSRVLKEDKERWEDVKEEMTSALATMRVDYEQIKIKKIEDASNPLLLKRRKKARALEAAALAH
Sequence of Dual specificity protein kinase CLK1 (P49759 whole entry): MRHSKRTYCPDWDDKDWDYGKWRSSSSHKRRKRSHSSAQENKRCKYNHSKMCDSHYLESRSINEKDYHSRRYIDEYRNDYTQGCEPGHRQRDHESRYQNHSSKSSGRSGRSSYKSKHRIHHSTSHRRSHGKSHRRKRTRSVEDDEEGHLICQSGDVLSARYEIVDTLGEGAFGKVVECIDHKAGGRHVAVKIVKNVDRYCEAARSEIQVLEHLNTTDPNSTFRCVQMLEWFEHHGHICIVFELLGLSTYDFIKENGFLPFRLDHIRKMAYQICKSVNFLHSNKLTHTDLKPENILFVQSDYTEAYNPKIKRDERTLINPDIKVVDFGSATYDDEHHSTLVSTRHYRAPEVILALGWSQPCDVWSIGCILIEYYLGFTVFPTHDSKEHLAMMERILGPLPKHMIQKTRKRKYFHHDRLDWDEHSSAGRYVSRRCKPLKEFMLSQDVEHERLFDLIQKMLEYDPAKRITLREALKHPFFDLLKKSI
Sequence of Wee1-like protein kinase (P30291 whole entry): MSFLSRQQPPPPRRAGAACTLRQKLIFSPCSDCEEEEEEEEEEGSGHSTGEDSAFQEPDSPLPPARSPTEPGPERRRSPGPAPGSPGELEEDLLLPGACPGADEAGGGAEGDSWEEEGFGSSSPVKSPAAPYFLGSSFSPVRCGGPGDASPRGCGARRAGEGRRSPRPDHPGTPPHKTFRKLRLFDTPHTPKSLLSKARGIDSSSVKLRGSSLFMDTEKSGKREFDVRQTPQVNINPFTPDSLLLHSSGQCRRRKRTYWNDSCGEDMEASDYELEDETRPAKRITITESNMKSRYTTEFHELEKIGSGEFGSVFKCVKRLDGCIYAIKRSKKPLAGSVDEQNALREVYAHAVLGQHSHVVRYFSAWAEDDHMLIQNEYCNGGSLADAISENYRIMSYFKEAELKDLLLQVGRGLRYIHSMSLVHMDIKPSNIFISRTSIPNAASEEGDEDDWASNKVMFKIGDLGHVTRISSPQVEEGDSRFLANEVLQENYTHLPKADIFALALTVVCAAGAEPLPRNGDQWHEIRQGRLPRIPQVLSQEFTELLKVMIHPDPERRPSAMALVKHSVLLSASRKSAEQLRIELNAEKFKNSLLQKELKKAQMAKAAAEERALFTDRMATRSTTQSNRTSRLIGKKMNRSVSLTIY

By Kd is commonly meant the free concentration of one partner at which half of the binding sites on the other are occupied at equilibrium, for simple one-to-one binding. As to `CC1(COc2ccc3c(c2)ncn3-c2ccc3cccc(N4CCC(N)CC4)c3n2)COC1` [CRENOLANIB], the Kd is > 30 µM (inactive) in test [1]; > 30 µM (inactive) in test [2]; > 30 µM (inactive) in test [3]; > 30 µM (inactive) in test [4]; 0.406 µM (active) in test [5]; > 30 µM (inactive) in test [6]. For the same compound, the Kd in test [7] is > 30 µM (inactive).
On to `COc1ccc2c(OCc3nnc4ccc(-c5ccccc5)nn34)ccnc2c1` [AMG-208], for which the Kd in test [1], in test [2], in test [3], in test [4], in test [5] and in test [6] was > 30 µM (inactive) in each case. In addition, the Kd in test [7] is > 30 µM (inactive).
`COc1ccc(-c2ccc3ncc4c(c3c2)n(-c2ccc(N3CCNCC3)c(C(F)(F)F)c2)c(=O)n4C)cn1` [BGT-226 FREE BASE]: the Kd in test [1] is > 30 µM (inactive); in test [2], > 30 µM (inactive); in test [3], > 30 µM (inactive); in test [4] it was > 30 µM (inactive); in test [5], > 30 µM (inactive); in test [6] it was 0.246 µM (active). The Kd in test [7] was > 30 µM (inactive).
